Experimental data from patent US5011825A, “Peptides influencing diuresis and natriuresis, a process for their preparation, agents containing them, and their use” (Hoechst Aktiengesellschaft, priority 1986, dated 1991).
code Z = not defined here

System: rat
Assay: Diuretic, natriuretic and kaliuretic action, Experimental Design 1 (anesthetized rats, continuous NaCl infusion, i.v. bolus)
Format: in vivo
Details: dose 1 mg/kg rat i.v. bolus, collection period 90 min
Procedure: A. […]
Experimental Design 1: The rats were anesthetized with 0.1 ml of 10% strength thiobutabarbital sodium/100 g of body weight i.p. They received an NaCl infusion from 60 min before administration of the substance and continuing during the experiment (2.5 ml of a 0.9% strength NaCl solution .h^-1.0.1 kg^-1 body weight). The test substance was administered as an i.v. bolus in 0.5 ml of a 0.9% strength solution/100 g of body weight.

Z-Arg-Ile-Trp-Arg-Ile-OMe ({code Z}-RIWRI-OMe; reading uncertain; also: printed as Z-Arg-Ile-Trp-Arg-Ile-OMe)
Urine (control 1.267): 1.16 mL/kg | K^+ (control 29.5): 46.2 µmol/kg | Na^+ (control 65.2): 152.5 µmol/kg
